For eight compounds, IC50 results are on record in US6004960A, “Pyridazinones as inhibitors of cyclooxygenase-2” (Merck Frosst Canada, Inc., priority 1998, dated 1999).

The target in test [1] is T1, COX-1 (Homo sapiens, UniProt P23219). Description: Human whole blood assay, COX-1 (clotting-induced TxB2 production). Also noted: platelets in whole blood contain a large amount of the COX-1 enzyme; from tissue; host or cells: fresh human whole blood (platelets), allowed to clot. The following applies: clotting-induced TxB2, 1 hour at 37° C, read-out: COX-1 (IC50 μM) HWB. In kind it is cell-based. The procedure:
Human whole blood provides a protein and cell-rich milieu appropriate for the study of biochemical efficacy of anti-inflammatory compounds such as selective COX-2 inhibitors. […] This is consistent with the observation that COX-2 inhibitors have no effect on PGE2 production in normal blood. These inhibitors are active only after incubation of human whole blood with LPS, which induces COX-2. This assay can be used to evaluate the inhibitory effect of selective COX-2 inhibitors on PGE2 production. As well, platelets in whole blood contain a large amount of the COX-1 enzyme. Immediately following blood clotting, platelets are activated through a thrombin-mediated mechanism. This reaction results in the production of thromboxane B2 (TxB2) via activation of COX-1. Thus, the effect of test compounds on TxB2 levels following blood clotting can be examined and used as an index for COX-1 activity. Therefore, the degree of selectivity by the test compound can be determined by measuring the levels of PGE2 after LPS induction (COX-2) and […] following blood clotting (COX-1) in the same assay.
B. COX-1 (Clotting-induced TxB2 production)
Fresh blood is collected into vacutainers containing no anticoagulants. […] The tubes are vortexed and incubated at 37° C. for 1 hour to allow blood to clot. At the end of incubation, serum is obtained by centrifugation (12,000×g for 5 min.). A 100 μL aliquot of serum is mixed with 400 μL of methanol for protein precipitation. The supernatant is obtained and is assayed for T×B2 using a enzyme immunoassay kit (Cayman, #519031) according to the manufacturer's instruction.

In test [2] the target is T1, COX-1. Description: Assay of COX-1 activity from U937 cell microsomes. It is filed as biochemical. On the set-up: Assay of COX-1 Activity from U937 cell microsomes; endogenous in cells; host or cells: U937 cells, 100,000×g microsomal pellet. The following applies: PGE2, read-out: COX-1 (IC50 μM) U-937. As for the experimental part: Assay of COX-1 Activity from U937 cell microsomes
U 937 cells are pelleted by centrifugation at 500×g for 5 min and washed once with phosphate-buffered saline and repelleted. […] The cell suspension is sonicated 4 times for 10 sec and is centrifuged at 10,000×g for 10 min at 4° C. The supernatant is centrifuged at 100,000×g for 1 hr at 4° C. The 100,000×g microsomal pellet is resuspended in 0.1 M Tris-HCl, pH 7.4, 10 mM EDTA to approximately 7 mg protein/ml and stored at -80° C.
Microsomal preparations are thawed immediately prior to use, subjected to a brief sonication, and then diluted to a protein concentration of 125 μg/ml in 0.1 M Tris-HCl buffer, pH 7.4 containing 10 mM EDTA, 0.5 mM phenol, 1 mM reduced glutathione and 1 μM hematin. Assays are performed in duplicate in a final volume of 250 pl. Initially, 5 µl of DMSO vehicle or drug in DMSO are added to 20 μl of 0.1 M Tris-HCl buffer, pH 7.4 containing 10 mM EDTA in wells of a 96-deepwell polypropylene titre plate. 200 μl of the microsomal preparation are then added and pre-incubated for 15 min at room temperature before addition of 25 μl of […] in 0.1 M Tris-HCl and 10 mM EDTA, pH 7.4. Samples are incubated for 40 min at room temperature and the reaction is stopped by the addition of 25 pl of 1 N HCl. Samples are neutralized with 25 μl of 1 N NaOH prior to quantitation of PGE2 content by radioimmunoassay (Dupont-NEN or Amersham assay kits). Cyclooxygenase activity is defined as the difference between PGE2 levels in samples incubated in the presence of arachidonic acid and ethanol vehicle.
(§1) In the assay, inhibition is determined by measuring the amount of prostaglandin E2 (PGE2) synthesized in the presence of arachidonic acid, cyclooxygenase-I or cyclooxygenase-2 and a putative inhibitor.

The target in test [3] is T2, COX-2 (Homo sapiens, UniProt P35354).
T2 sequence (P35354 18-604): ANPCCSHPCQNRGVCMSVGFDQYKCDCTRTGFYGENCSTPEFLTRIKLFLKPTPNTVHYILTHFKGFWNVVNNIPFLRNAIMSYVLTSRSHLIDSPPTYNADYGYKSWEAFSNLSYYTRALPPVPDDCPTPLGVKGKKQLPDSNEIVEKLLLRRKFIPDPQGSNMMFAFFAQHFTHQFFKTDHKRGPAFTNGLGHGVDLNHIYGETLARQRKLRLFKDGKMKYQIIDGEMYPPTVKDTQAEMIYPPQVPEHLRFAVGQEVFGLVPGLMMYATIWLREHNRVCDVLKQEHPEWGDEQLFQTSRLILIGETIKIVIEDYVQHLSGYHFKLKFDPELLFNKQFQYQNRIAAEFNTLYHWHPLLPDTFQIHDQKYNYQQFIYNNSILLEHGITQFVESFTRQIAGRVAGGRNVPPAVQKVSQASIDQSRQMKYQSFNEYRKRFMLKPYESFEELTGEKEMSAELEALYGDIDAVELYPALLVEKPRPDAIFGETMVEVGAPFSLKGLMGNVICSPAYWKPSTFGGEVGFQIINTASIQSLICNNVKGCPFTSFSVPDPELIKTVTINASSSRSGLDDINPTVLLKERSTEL
Description: Whole cell assay for COX-2 using CHO transfected cell line (CHO [hCOX-2]), PGE2. In kind it is cell-based. Also noted: expressed in transfected cells; host or cells: CHO (Chinese hamster ovary), stably transfected with pCDNAIII vector; CHO [hCOX-2]. The following applies: CHO [hCOX-2] cells, 10 μM AA. As for the experimental part: Chinese hamster ovary (CHO) cell lines which have been stably transfected with an eukaryotic expression vector pCDNAIII containing either the human COX-1 or COX-2 cDNA's are used for the assay. These cell lines are referred to as CHO [hCOX-1] and CHO [hCOX-2], respectively. […] Drugs to be tested are dissolved in DMSO to 66.7-fold the highest test drug concentration. […] Cells (0.3×10^6 cells in 200 p) are preincubated with 3 AIl of the test drug or DMSO vehicle for 15 min at 37° C. […] Cells are then challenged in the presence or absence of drug with the AA/HBSS solution to yield a final concentration of 0.5 μM AA in the CHOhCOX-1] assay and a final concentration of 10 μM AA in the CHO [hCOX-2] assay. […] The samples are centrifuged at 300×g at 4° C. for 10 min, and an aliquot of the clarified supernatant is appropriately diluted for the determination of PGE2 levels using an enzyme-liked immunoassay for PGE2 (Correlate PGE2 enzyme immunoassay kit, Assay Designs, Inc.). Cyclooxygenase activity in the absence of test compounds is determined as the difference in PGE2 levels of cells challenged with arachidonic acid versus the PGE2 levels in cells mock-challenged with ethanol vehicle. Inhibition of PGE2 synthesis by test compounds is calculated as a percentage of the activity in the presence of drug versus the activity in the positive control samples.
as §1

In test [4] the target is T2, COX-2. Description: Human whole blood assay, COX-2 (LPS-induced PGE2 production). In kind it is cell-based. On the set-up: incubation of human whole blood with LPS, which induces COX-2; from tissue; host or cells: fresh human whole blood (volunteers), incubated with LPS. The following applies: LPS-induced PGE2, 24 hours at 37° C, read-out: COX-2 (IC50 μM) HWB. An excerpt: As well, platelets in whole blood contain a large amount of the COX-1 enzyme. Immediately following blood clotting, platelets are activated through a thrombin-mediated mechanism. This reaction results in the production of thromboxane B2 (TxB2) via activation of COX-1. Thus, the effect of test compounds on TxB2 levels following blood clotting can be examined and used as an index for COX-1 activity. Therefore, the degree of selectivity by the test compound can be determined by measuring the levels of PGE2 after LPS induction (COX-2) and […] following blood clotting (COX-1) in the same assay.
A. COX-2 (LPS-induced PGE2 production)
Fresh blood is collected in heparinized tubes by venipuncture from both male and female volunteers. The subjects have no apparent inflammatory conditions and have not taken any NSAIDs for at least 7 days prior to blood collection. Plasma is immediately obtained from a 2mL blood aliquot to use as blank (basal levels of PGE2). The remaining blood is incubated with LPS (100 μg/ml final concentration, Sigma Chem, #L-2630 from E. coli; diluted in 0.1% BSA (Phosphate buffered saline) for 5 minutes at room temperature. Five hundred μL aliquots of blood are incubated with either 2μL of vehicle (DMSO) or 2 μL of a test compound at final concentrations varying from 10nM to 30 μM for 24 hours at 37° C. At the end of the incubation, the blood is centrifuged at 12,000×g for 5 minutes to obtain plasma. A 100 μL aliquot of plasma is mixed with 400 μL of methanol for protein precipitation. The supernatant is obtained and is assayed for PGE2 using a radioimmunoassay kit (Amersham, RPA#530) after conversion of PGE2 to its methyl oximate derivative according to the manufacturer's procedure. […]

T1 sequence (P23219 24-599): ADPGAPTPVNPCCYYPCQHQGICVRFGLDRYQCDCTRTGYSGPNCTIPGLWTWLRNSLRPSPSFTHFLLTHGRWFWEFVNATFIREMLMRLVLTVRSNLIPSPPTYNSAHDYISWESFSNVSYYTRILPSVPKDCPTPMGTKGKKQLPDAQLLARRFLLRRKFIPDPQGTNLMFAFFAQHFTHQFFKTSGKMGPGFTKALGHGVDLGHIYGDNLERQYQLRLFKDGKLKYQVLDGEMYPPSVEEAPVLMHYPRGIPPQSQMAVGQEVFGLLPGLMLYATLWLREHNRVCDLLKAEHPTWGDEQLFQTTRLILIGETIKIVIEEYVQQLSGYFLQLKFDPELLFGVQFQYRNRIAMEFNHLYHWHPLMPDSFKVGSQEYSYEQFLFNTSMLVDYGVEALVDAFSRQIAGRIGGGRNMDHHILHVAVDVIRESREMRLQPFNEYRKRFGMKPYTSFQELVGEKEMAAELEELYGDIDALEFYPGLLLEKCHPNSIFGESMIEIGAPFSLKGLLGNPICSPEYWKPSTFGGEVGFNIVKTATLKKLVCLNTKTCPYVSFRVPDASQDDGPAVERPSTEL

By IC50 is commonly meant the point on the concentration scale where inhibition reaches its midpoint. On to `CC(C)Oc1c(-c2ccc(S(C)(=O)=O)cc2)cnn(Cc2ccccc2)c1=O` [Example 21, 2-Benzyl-4-(2-propoxy)-5-(4-methylsulfonyl)phenyl-2H-pyridazin-3-one], for which the IC50 at COX-1 [1] was over 100 µM.

On to `CS(=O)(=O)c1ccc(-c2cnn(Cc3ccccc3)c(=O)c2Oc2ccc(F)cc2)cc1` [Example 22, 2-Benzyl-4-(4-fluorophenoxy)-5-(4-methylsulfonyl)phenyl-2H-pyridazin-3-one], for which the IC50 on COX-1 [2] was 0.3 to 1 µM; on COX-1 [1], 9 µM.

With `CC(C)(C)Cn1ncc(-c2ccc(S(C)(=O)=O)cc2)c(-c2ccc(F)cc2)c1=O` [Example 24, 2-(2,2-Dimethylpropyl)-4-(4-fluorophenyl)-5-(4-methylsulfonyl)phenyl-2H-pyridazin-3-one], the results for the IC50 at COX-1 [2], against COX-2 [3] and at COX-2 [4] were about 10 µM, 0.16 µM and 2.4 µM, respectively.

In the case of `CC(c1ccccc1)n1ncc(-c2ccc(S(C)(=O)=O)cc2)c(-c2ccc(F)cc2)c1=O` (stereo not drawn) [Example 25, 4-(4-Fluorophenyl)-5-(4-methylsulfonyl)phenyl-2-(1-phenyl-ethyl)-2H-pyridazin-3-one], the IC50 at COX-1 [2] was about 1 µM; against COX-2 [3], 0.49 µM; at COX-2 [4], 1.4 µM.

On to `CS(=O)(=O)c1ccc(-c2cnn(-c3cccc(F)c3)c(=O)c2-c2ccccc2)cc1` [Example 26, 2-(3-Fluorophenyl)-5-(4-methylsulfonyl)phenyl-4-phenyl-2H-pyridazin-3-one], for which the IC50 on COX-1 [2] is over 10 µM; against COX-2 [3], 0.065 µM; at COX-2 [4], 5.5 µM.

For the compound `CS(=O)(=O)c1ccc(-c2cnn(CCCC(F)(F)F)c(=O)c2-c2ccc(F)cc2)cc1` [Example 29, 4-(4-Fluorophenyl)-5-(4-methylsulfonyl)phenyl-2-(4,4,4-trifluorobutyl)-2H-pyridazin-3-one], the IC50 at COX-1 [2] is over 10 µM; at COX-2 [3], 0.18 µM; on COX-2 [4] it was 1.3 µM.

Turning to `CC(C)Cn1ncc(-c2ccc(S(C)(=O)=O)cc2)c(-c2ccc(F)cc2)c1=O` [Example 31, 4-(4-Fluorophenyl)-2-(2-methylpropyl)-5-(4-methylsulfonyl)phenyl-2H-pyridazin-3-one], the results for the IC50 at COX-1 [2], on COX-2 [3] and at COX-2 [4] were over 10 µM, 0.18 µM and 3.8 µM, respectively.

For the compound `CS(=O)(=O)c1ccc(-c2cnn(CC3CCC3)c(=O)c2-c2ccc(F)cc2)cc1` [Example 32, 2-Cyclobutylmethyl-4-(4-fluorophenyl)-5-(4-methylsulfonyl)phenyl-2H-pyridazin-3-one], the IC50 on COX-1 [2] is about 10 µM; against COX-2 [3], 0.029 µM; on COX-2 [4], 0.56 µM.
